Test [1] has as its target T1, Adrenergic receptor alpha-2 (Rattus norvegicus, UniProt P22086+P19328+P22909).
T1 sequence (P22086 whole entry): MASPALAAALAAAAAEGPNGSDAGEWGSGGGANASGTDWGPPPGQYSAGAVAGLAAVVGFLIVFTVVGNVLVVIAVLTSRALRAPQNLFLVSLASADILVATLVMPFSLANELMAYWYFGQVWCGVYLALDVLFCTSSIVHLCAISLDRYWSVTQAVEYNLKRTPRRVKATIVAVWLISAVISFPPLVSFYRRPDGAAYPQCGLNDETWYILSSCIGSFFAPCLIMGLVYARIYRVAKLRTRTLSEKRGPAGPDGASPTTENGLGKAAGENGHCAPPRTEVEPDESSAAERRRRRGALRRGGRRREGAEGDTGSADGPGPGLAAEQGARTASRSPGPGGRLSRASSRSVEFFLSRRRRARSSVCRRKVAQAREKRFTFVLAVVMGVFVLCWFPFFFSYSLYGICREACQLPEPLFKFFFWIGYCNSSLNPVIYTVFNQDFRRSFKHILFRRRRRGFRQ
T1 sequence (P19328 whole entry): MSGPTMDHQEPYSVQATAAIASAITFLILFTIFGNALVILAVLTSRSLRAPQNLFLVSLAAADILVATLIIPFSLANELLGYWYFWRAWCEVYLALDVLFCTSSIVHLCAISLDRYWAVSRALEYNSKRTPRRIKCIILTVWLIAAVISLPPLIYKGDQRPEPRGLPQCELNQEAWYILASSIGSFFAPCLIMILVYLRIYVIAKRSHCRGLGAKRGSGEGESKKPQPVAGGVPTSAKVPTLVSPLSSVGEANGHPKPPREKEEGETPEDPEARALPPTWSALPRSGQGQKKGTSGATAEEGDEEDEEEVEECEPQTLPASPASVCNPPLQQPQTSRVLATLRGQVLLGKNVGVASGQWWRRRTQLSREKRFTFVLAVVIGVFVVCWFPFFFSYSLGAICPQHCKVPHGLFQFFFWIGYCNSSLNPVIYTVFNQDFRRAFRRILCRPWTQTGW
T1 sequence (P22909 whole entry): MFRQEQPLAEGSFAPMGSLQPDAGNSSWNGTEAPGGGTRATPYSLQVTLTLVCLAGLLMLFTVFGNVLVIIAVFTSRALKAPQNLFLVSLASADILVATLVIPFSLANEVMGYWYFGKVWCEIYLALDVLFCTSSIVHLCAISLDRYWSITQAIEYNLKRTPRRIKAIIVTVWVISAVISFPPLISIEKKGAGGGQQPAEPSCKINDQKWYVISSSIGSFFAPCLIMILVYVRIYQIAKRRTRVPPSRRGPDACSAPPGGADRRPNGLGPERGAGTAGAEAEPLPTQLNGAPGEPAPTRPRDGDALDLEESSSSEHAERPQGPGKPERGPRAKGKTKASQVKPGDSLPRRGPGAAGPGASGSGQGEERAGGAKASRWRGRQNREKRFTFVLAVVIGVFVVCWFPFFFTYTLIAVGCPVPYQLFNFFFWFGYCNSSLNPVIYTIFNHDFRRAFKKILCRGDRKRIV
As to the kind of experiment: Antagonistic activity against alpha-2 adrenergic receptor in rat vas deferens. It counts as functional, tissue-based.

Test [2] concerns the target T2, Adrenergic receptor alpha-1 (Rattus norvegicus, UniProt P15823+P23944+P43140).
T2 sequence (P15823 whole entry): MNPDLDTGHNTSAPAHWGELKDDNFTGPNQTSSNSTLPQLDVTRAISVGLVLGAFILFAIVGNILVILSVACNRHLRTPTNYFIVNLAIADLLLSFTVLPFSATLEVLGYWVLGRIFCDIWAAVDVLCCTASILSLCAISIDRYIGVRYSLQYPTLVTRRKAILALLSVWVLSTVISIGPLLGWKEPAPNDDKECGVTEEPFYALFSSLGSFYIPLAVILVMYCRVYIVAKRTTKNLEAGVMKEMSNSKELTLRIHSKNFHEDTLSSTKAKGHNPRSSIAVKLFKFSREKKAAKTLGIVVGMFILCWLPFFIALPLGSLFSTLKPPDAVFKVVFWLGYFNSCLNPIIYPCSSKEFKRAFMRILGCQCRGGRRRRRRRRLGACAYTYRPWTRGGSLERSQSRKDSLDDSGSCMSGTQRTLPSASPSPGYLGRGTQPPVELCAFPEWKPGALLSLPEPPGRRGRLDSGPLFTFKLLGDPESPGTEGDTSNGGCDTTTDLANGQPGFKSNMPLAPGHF
T2 sequence (P23944 whole entry): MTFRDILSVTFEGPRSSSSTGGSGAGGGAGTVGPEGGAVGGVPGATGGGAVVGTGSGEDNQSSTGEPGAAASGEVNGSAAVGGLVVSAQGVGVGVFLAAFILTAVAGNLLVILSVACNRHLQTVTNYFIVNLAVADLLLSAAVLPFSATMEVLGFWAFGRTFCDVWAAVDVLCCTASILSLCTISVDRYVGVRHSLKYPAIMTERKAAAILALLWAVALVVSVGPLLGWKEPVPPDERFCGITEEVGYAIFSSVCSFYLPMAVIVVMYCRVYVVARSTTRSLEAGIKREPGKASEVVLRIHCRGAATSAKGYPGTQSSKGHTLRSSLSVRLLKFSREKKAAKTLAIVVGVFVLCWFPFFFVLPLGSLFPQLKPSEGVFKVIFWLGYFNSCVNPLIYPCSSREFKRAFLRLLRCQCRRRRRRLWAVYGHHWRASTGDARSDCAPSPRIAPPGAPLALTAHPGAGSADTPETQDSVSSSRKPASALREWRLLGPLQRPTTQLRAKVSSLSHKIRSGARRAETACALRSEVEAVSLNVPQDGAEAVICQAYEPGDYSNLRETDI
T2 sequence (P43140 whole entry): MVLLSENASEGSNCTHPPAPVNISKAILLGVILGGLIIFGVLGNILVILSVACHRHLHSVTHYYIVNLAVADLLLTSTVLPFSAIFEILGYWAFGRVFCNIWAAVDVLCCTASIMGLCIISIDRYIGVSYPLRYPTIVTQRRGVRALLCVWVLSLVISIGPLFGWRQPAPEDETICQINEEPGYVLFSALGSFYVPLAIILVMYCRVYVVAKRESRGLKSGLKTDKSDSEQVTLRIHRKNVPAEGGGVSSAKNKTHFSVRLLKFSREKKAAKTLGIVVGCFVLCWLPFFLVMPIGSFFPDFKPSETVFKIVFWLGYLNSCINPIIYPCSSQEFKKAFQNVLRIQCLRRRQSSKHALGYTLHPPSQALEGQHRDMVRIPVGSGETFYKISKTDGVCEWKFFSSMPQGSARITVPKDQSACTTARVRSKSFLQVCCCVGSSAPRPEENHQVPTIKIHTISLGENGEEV
Kind of test: Antagonistic activity against alpha-1 adrenergic receptor in rat anococcygeus muscle.

Test [3] addresses T2, Adrenergic receptor alpha-1. As to the kind of experiment: Antagonistic activity against alpha-1-adrenoceptor in isolated rat anococcygeus muscle. The test is classed as functional, tissue-based, Muscle tissue.
For test [4] the target is unchanged. As to the kind of experiment: Antagonistic activity against alpha-1 adrenergic receptor in isolated rat anococcygeus muscle. The test is classed as functional, tissue-based.

For the molecule `CCCS(=O)(=O)N(C)[C@@H]1CCN2CCc3ccccc3[C@@H]2C1` (stereo in doubt), the pA2 (commonly the negative logarithm of the molar antagonist concentration that doubles the agonist concentration needed for the same response) came to 8.5 in test [1] and 7.2 in test [2].

As to `CC(C)CS(=O)(=O)N(C)[C@@H]1CCN2CCc3ccccc3[C@@H]2C1` (stereo in doubt), the pA2 in test [1] was determined as 8.05; in test [2] it was 6.9.

For the molecule `CS(=O)(=O)N[C@@H]1CCN2CCc3ccccc3[C@@H]2C1`, the pA2 in test [1] turned out to be 6.27; in test [3], 5.33.

As for `CNS(=O)(=O)N(C)[C@@H]1CCN2CCc3ccccc3[C@@H]2C1`, the pA2 is on record as 7.44 in test [1] and 6.19 in test [4].

Consider `CN([C@@H]1CCN2CCc3ccccc3[C@@H]2C1)S(=O)(=O)N1CCCC1`, for which the pA2 in test [1] was 8.1; in test [4], 6.7.

Take `CN([C@@H]1CCN2CCc3ccccc3[C@@H]2C1)S(C)(=O)=O` (stereo in doubt): the figures for the pA2 in test [1] and in test [4] were 8.05 and 6.48, respectively.

Take `Cc1ccc(S(=O)(=O)N(C)[C@@H]2CCN3CCc4ccccc4[C@@H]3C2)cc1`: the pA2 in test [1] is 8.1; in test [4], 6.84.

As for `CN([C@@H]1CCN2CCc3ccccc3[C@@H]2C1)S(=O)(=O)c1ccc(Cl)cc1`, the pA2 in test [1] came out at 7.6; in test [4], 6.09.

With `CCCS(=O)(=O)N(C)[C@H]1CCN2CCc3ccccc3[C@H]2C1`, the values for the pA2 in test [1] and in test [4] were 7.1 and 5.8, respectively.

Values taken from ChEMBL document CHEMBL1124159, “Synthesis and structure-activity relationships of 2-sulfonamido-1,3,4,6,7,11b alpha-hexahydro-2H-benzo[a]quinolizines as alpha 2-adrenoceptor antagonists” (J Med Chem, 1988).
